Converted amounts (≈) assume the structure as drawn. One block for each compound: values may come before it.
Experiments:
Experiment in all cases: ≥ marks a high value that may be exact or a test limit, other limits are often not marked, values filed in µg/mL are converted to µM
[1] = system: Salmonella enterica subsp. enterica serovar Salford IMVS 1710
[2] = system: Escherichia coli O9
[3] = system: Bacillus cereus ACM 446
[4] = system: Listeria monocytogenes NCTC 7973
[5] = system: Escherichia coli L361
[6] = system: Pseudomonas fluorescens
[7] = system: Staphylococcus aureus NCTC 6571
[8] = system: Candida tropicalis IOC 4560
[9] = system: Candida albicans MDM8
[10] = system: Enterobacter cloacae beta-12
[11] = system: Bacillus megaterium ATCC 10778
[12] = system: Micrococcus luteus A270
[13] = system: Bacillus subtilis ATCC 6633
[14] = system: Serratia marcescens ATCC 4112
[15] = system: Staphylococcus aureus ATCC 29213
[16] = system: Escherichia coli SBS 363
[17] = system: Pseudomonas aeruginosa ATCC 27853
[18] = system: Staphylococcus aureus ATCC 1717
[19] = system: Klebsiella pneumoniae NDM-1
[20] = system: Citrobacter freundii
[21] = system: Escherichia coli NDM-1
[22] = system: Morganella morganii
[23] = system: Enterococcus faecalis
[24] = system: Bacillus subtilis ATCC 23857
[25] = system: Klebsiella oxytoca
[26] = system: Escherichia coli ATCC 25922
[27] = system: Enterobacter cloacae
[28] = system: Staphylococcus epidermidis ATCC 12228
[29] = system: Escherichia coli K99
[30] = system: Salmonella enterica subsp. enterica serovar Pullorum ATCC 7913
[31] = system: Salmonella typhimurium ATCC 7731
[32] = system: Staphylococcus aureus ATCC 25923
[33] = system: Escherichia coli K88
[34] = system: Enterococcus faecalis ATCC 29212
[35] = system: Acinetobacter baumannii
[36] = system: Escherichia coli UB1005
[37] = system: Bacillus cereus CGMCC 1.932
[38] = system: Salmonella enterica subsp. enterica serovar Typhimurium ATCC 14028
[39] = system: Listeria monocytogenes CGMCC 1.1075
[40] = system: Escherichia coli 078
[41] = system: Staphylococcus aureus ATCC 43300
[42] = system: Pseudomonas aeruginosa PAO1
[43] = system: Bacillus subtilis CMCC 63501
[44] = system: Salmonella enterica subsp. enterica serovar Typhimurium C77-31
[45] = system: Salmonella enterica subsp. enterica serovar Pullorum C79-13
[46] = system: Salmonella enterica subsp. enterica serovar Typhi CMCC 50071

Compound: CC[C@H](C)[C@H](NC(=O)[C@H](CO)NC(=O)[C@@H]1CCCN1C(=O)[C@H](C)NC(=O)CNC(=O)[C@H](CC(C)C)NC(=O)[C@H](CCCCN)NC(=O)[C@H](CCCCN)NC(=O)[C@H](CCSC)NC(=O)[C@H](CCCN=C(N)N)NC(=O)[C@H](Cc1c[nH]c2ccccc12)NC(=O)[C@H](CCC(N)=O)NC(=O)[C@H](Cc1c[nH]c2ccccc12)NC(=O)[C@H](CCCN=C(N)N)NC(=O)[C@H](CCCN=C(N)N)NC(=O)[C@H](CS)NC(=O)[C@H](CCCCN)NC(=O)[C@@H](N)Cc1ccccc1)C(=O)N[C@H](C(=O)N[C@@H](CS)C(=O)N[C@H](C(=O)N[C@@H](CCCN=C(N)N)C(=O)N[C@@H](CCCN=C(N)N)C(=O)N[C@@H](C)C(=O)N[C@@H](Cc1ccccc1)C(=O)N[C@@H](C)C(=O)O)C(C)C)[C@@H](C)O [FKCRRWQWRMKKLGAPSITCVRRAFA]
MIC [1]: 4 µM (≈ 12.8 µg/mL)
MIC [2]: 8 µM (≈ 25.6 µg/mL)
MIC [3]: 8 µM (≈ 25.6 µg/mL)
MIC [4]: 4 µM (≈ 12.8 µg/mL)
MIC [5]: 4 µM (≈ 12.8 µg/mL)
MIC [6]: 6 µM (≈ 19.2 µg/mL)
MIC [7]: 6 µM (≈ 19.2 µg/mL)

Compound: CC(C)C[C@H](NC(=O)[C@H](C)NC(=O)CNC(=O)[C@H](CC(C)C)NC(=O)[C@@H](N)Cc1ccccc1)C(=O)N[C@@H](Cc1c[nH]c2ccccc12)C(=O)N[C@@H](CCCN=C(N)N)C(=O)N[C@H](C(=O)N[C@@H](C)C(=O)N[C@@H](CCCCN)C(=O)N[C@@H](CO)C(=O)N[C@H](C(=O)N[C@@H](Cc1ccccc1)C(N)=O)C(C)C)C(C)C [FLGALWRVAKSVF]
MIC [8]: 1.6 µM (≈ 2.39 µg/mL)
MIC [9]: 1.6 µM (≈ 2.39 µg/mL)
MIC [10]: 6.3 µM (≈ 9.4 µg/mL)
MIC [11]: 0.8 µM (≈ 1.19 µg/mL)
MIC [12]: 1.6 µM (≈ 2.39 µg/mL)
MIC [13]: 0.8 µM (≈ 1.19 µg/mL)
MIC [14]: 0.4 µM (≈ 0.597 µg/mL)
MIC [15]: 1.6 µM (≈ 2.39 µg/mL)
MIC [16]: 1.6 µM (≈ 2.39 µg/mL)
MIC [17]: 6.3 µM (≈ 9.4 µg/mL)

Compound: CC[C@H](C)[C@H](NC(=O)CN)C(=O)N[C@@H](CCCCN)C(=O)N[C@@H](C)C(=O)NCC(=O)N[C@H](C(=O)N[C@H](C(=O)N[C@H](C(=O)N[C@@H](CCCCN)C(=O)N[C@H](C(=O)N[C@@H](CCCCN)C(=O)N[C@@H](CCCCN)C(N)=O)[C@@H](C)CC)[C@@H](C)CC)[C@@H](C)CC)[C@@H](C)CC [GIKAGIIIKIKK]
MIC [18]: ≥ 128 µM
MIC [19]: 22.6 µM (≈ 29 µg/mL)
MIC [20]: 16 µM (≈ 20.5 µg/mL)
MIC [21]: 16 µM (≈ 20.5 µg/mL)
MIC [22]: ≥ 128 µM
MIC [23]: ≥ 64 µM
MIC [24]: 16 µM (≈ 20.5 µg/mL)
MIC [25]: ≥ 32 µM
MIC [26]: 16 µM (≈ 20.5 µg/mL)
MIC [27]: 22.6 µM (≈ 29 µg/mL)

Continued, values first:

MIC [28]: 2 µM (≈ 3.46 µg/mL)
MIC [29]: 2 µM (≈ 3.46 µg/mL)
MIC [30]: 4 µM (≈ 6.92 µg/mL)
MIC [31]: 8 µM (≈ 13.8 µg/mL)
MIC [32]: 4 µM (≈ 6.92 µg/mL)
MIC [33]: 1 µM (≈ 1.73 µg/mL)
MIC [34]: 2 µM (≈ 3.46 µg/mL)
MIC [35]: 1 µM (≈ 1.73 µg/mL)
MIC [36]: 2 µM (≈ 3.46 µg/mL)
MIC [17]: 8 µM (≈ 13.8 µg/mL)
MIC [37]: 8 µM (≈ 13.8 µg/mL)
MIC [38]: 8 µM (≈ 13.8 µg/mL)
MIC [39]: 1 µM (≈ 1.73 µg/mL)
MIC [40]: 4 µM (≈ 6.92 µg/mL)
MIC [41]: 4 µM (≈ 6.92 µg/mL)
MIC [42]: 4 µM (≈ 6.92 µg/mL)
MIC [43]: 4 µM (≈ 6.92 µg/mL)
Compound: CC(C)[C@H](NC(=O)[C@H](CCCN=C(N)N)NC(=O)[C@H](Cc1c[nH]c2ccccc12)NC(=O)[C@H](CCCN=C(N)N)NC(=O)[C@H](Cc1c[nH]c2ccccc12)NC(=O)[C@H](Cc1c[nH]c2ccccc12)NC(=O)[C@H](Cc1c[nH]c2ccccc12)NC(=O)[C@H](CCCN=C(N)N)NC(=O)[C@H](Cc1c[nH]c2ccccc12)NC(=O)[C@H](CCCN=C(N)N)NC(=O)CN)C(N)=O [GRWRWWWRWRV]

MIC [28]: 8 µM (≈ 14.2 µg/mL)
MIC [44]: 16 µM (≈ 28.3 µg/mL)
MIC [32]: 32 µM (≈ 56.7 µg/mL)
MIC [15]: 8 µM (≈ 14.2 µg/mL)
MIC [36]: 8 µM (≈ 14.2 µg/mL)
MIC [45]: 16 µM (≈ 28.3 µg/mL)
MIC [46]: ≥ 128 µM
MIC [38]: 32 µM (≈ 56.7 µg/mL)
Compound: NCCCC[C@H](NC(=O)[C@H](Cc1c[nH]c2ccccc12)NC(=O)[C@H](CCCN=C(N)N)NC(=O)[C@H](CCCN=C(N)N)NC(=O)[C@H](Cc1c[nH]c2ccccc12)NC(=O)[C@H](CCC(N)=O)NC(=O)[C@H](Cc1c[nH]c2ccccc12)NC(=O)[C@H](CCCN=C(N)N)NC(=O)[C@H](CCCN=C(N)N)NC(=O)[C@H](Cc1c[nH]c2ccccc12)NC(=O)[C@@H](N)CCCCN)C(N)=O [KWRRWQWRRWK]

Source: DBAASP
